Values quoted from earlier work as cited in patent publication US11103580B2, “Methods and systems for treating cell proliferation disorders” (Immunolight, LLC, priority 2007, dated 2021).
Where two headings read alike, the source gives them in different places. Values belong to the compound of their own block, whether it stands above or below them.

What was measured:
leukocytes = details: administered orally to a patient
rapidly dividing tissue = details: in vivo
[1] = in excess
[2] = for Length of photosensitization: Table 3, known photosensitizers
tumors = details: in vivo

Compound: COc1c2occc2cc2ccc(=O)oc12 [Compound 8-MOP, 8-methoxypsoralen]
- inducing an apoptosis of leukocytes (leukocytes): effective at inducing an apoptosis of leukocytes
- safety (leukocytes): safe

- uptake in rapidly dividing tissue (rapidly dividing tissue): increased uptake
Compound: C/C1=C2/[N-][C@H]([C@H](CC(N)=O)[C@@]2(C)CCC(=O)NC[C@@H](C)OP(=O)([O-])O[C@H]2[C@@H](O)[C@@H](n3cnc4cc(C)c(C)cc43)O[C@@H]2CO)[C@]2(C)N=C(/C(C)=C3N=C(/C=C4N=C1[C@@H](CCC(N)=O)C\4(C)C)[C@@H](CCC(N)=O)[C@]\3(C)CC(N)=O)[C@@H](CCC(N)=O)[C@]2(C)CC(N)=O.[CH3-].[Co+3] [methylcobalamin]

- water solubility: water soluble
- excretion [1]: excreted by gloinerular filtration
Compound: Vitamin B12

- duration of skin photosensitivity ([2]; approximately): approximately 2 weeks
Compound: Oc1cccc(-c2c3nc(c(-c4cccc(O)c4)c4ccc([nH]4)c(-c4cccc(O)c4)c4nc(c(-c5cccc(O)c5)c5ccc2[nH]5)CC4)C=C3)c1 [Foscan, Tetra (m-hydroxyphenyl) chlorin]
- Length of photosensitization [2]: 2 weeks

- uptake in rapidly dividing tissue (rapidly dividing tissue): increased uptake
Compound: Cobalt-57-cyanocobalamin

- duration of skin photosensitivity ([2]; clinical use): 24 to 48 h
Compound: CC(=O)[O-].CC(=O)[O-].CCc1c(CC)c2cc3nc(cnc4cc(OCCOCCOCCOC)c(OCCOCCOCCOC)cc4ncc4nc(cc1[n-]2)C(CCCO)=C4C)C(C)=C3CCCO.O.[Lu+3] [Lutetium texaphryin, Motexafin lutetium]
- Length of photosensitization [2]: 24 to 48 h
- selectivity for tumors compared to normal tissues (tumors): one of the greatest reported selectivities for tumors
